Experimental data reported in patent US20050069887A1, “Dna synthesis promoters dna polymerase-associated factors and utilization thereof” (priority 2001, published 2005).
“And” between values parts separate entries of the source, which are not always exact repeats. Equal entries are not always repeated.

Assays:
Format in all cases: biochemical, Thermococcus kodakaraensis KOD1
KOD-plus DNA polymerase [1] = biological target: T1, KOD-plus DNA polymerase (Thermococcus kodakarensis, UniProt P77933, DEL407-766/DEL853-1389); test: PCR using KOD-plus with oxalate ion and betaine (Example 2-3); settings: 2 mM potassium oxalate, FIG. 13
T1 construct: purchased Toyobo
Procedure: Oxalate ion and betaine were investigated for their synergistic effectiveness in amplification of a target DNA which cannot be amplified by normal PCR, using KOD-plus DNA polymerase, i.e. a hot start enzyme which is a mixture of KOD (α-type enzyme) and two kinds of KOD antibodies. Potassium oxalate was added to the PCR buffer supplied with KOD-plus (TOYOBO CO., LTD.) to attain a final concentration of 2 mM. Also used were 0.2 mM dNTPs and 0.3 μM of a pair of primers of SEQ ID NOs: 14 and 15. 20 ng of genomic DNA derived from human cell line K562 was used as a template. This reaction mixture was subjected to PCR by using GeneAmp2400 (PE Applied Biosystems) to investigate the influence of varying the concentration of betaine on the PCR results. The PCR conditions were as follows: 1 preliminary reaction of 94° C. for 2 minutes, and then 35 cycles of 94° C. for 15 seconds, 60° C. for 30 seconds and 68° C. for 8.5 minutes.

KOD DNA polymerase = KOD DNA polymerase (Thermococcus kodakarensis, UniProt P77933, DEL407-766/DEL853-1389); test: Long PCR using KOD DNA polymerase (Examples 2-5 to 2-8)
Procedure: Oxalate ion and betaine were investigated for their synergistic effectiveness in long PCR amplification of a target DNA of more than 20 kb derived from the human genome using KOD DNA polymerase, successful amplification of which using α-type enzyme alone has not been reported. Potassium oxalate was added to the PCR buffer supplied with KOD-plus (TOYOBO CO.,LTD.) to attain a final concentration of 2 mM. Also used were 0.4 mM dNTPs, 0.3 μM of a pair of primers of SEQ ID Nos:20 and 21, and 2.0 U KOD DNA polymerase. 200 ng of genomic DNA derived from human cell line K562 was used as a template. This reaction mixture was subjected to PCR by using GeneAmp2400 (PE Applied Biosystems) to investigate the influence on the PCR results of varying the concentration of betaine. The PCR conditions were as follows: 1 preliminary reaction of 94° C. for 2 minutes; 5 cycles of 98° C. for 10 seconds and 74° C. for 18 minutes; 5 cycles of 98° C. for 10 seconds and 72° C. for 18 minutes; 5 cycles of 98° C. for 10 seconds and 70° C. for 18 minutes; 25 cycles of 98° C. for 10 second and 68° C. for 18 minutes; and 1 additional reaction of 68° C. for 7 minutes.
Oxalate ion and betaine were investigated for their synergistic effectiveness in long PCR amplification of a target DNA of more than 20 kb derived from the human genome using KOD DNA polymerase, successful amplification of which using α-type enzyme alone has not been reported. Betaine was added to the PCR buffer supplied with KOD-plus (TOYOBO CO., LTD.) to attain a final concentration of 1.5 M. Also used were 2.0 U KOD DNA polymerase, 0.4 mM dNTPs and 0.3 μM of a pair of primers of SEQ ID Nos:22 and 23 respectively for the PCR amplification of 22 kb DNA in tPA gene, and SEQ ID Nos:22 and 24 respectively for the PCR amplification of tPA 24 kb DNA. 200 ng of genomic DNA derived from human cell line K562 was used as a template. This reaction mixture was subjected to PCR by using GeneAmp2400 (PE Applied Biosystems) to investigate the influence on the PCR results of varying the concentration of potassium oxalate. The PCR conditions were as follows: 1 preliminary reaction of 94° C. for 2 minutes; 5 cycles of 98° C. for 10 seconds and 74° C. for 18 minutes; 5 cycles of 98° C. for 10 seconds and 72° C. for 18 minutes; 5 cycles of 98° C. for 10 seconds and 70° C. for 18 minutes; 25 cycles of 98° C. for 10 seconds and 68° C. of 18 minutes; and 1 additional reaction of 68° C. for 7 minutes.
Under the aforementioned conditions in which oxalate ions and betaine are present, the effect of hot start PCR using antibodies in long PCR using KOD DNA polymerase was investigated. Potassium oxalate and betaine were added to the PCR buffer supplied with KOD-plus (TOYOBO CO.LTD.) to attain a final oxalate concentration of 2 mM and a final betaine concentration of 1.5 M. Also used were 2.0 U KOD DNA polymerase, 0.4 mM dNTPs and 0.3 μM of a pair of primers of SEQ ID Nos:22 and 25 for PCR amplification of tPA 12 kb DNA; SEQ ID Nos:22 and 26 for PCR amplification of tPA 15 kb DNA; SEQ ID Nos:22 and 27 for PCR amplification of tPA 18 kb DNA; SEQ ID Nos:22 and 23 for PCR amplification of tPA 22 kb DNA; SEQ ID Nos:22 and 24 for PCR amplification of tPA 24 kb DNA; and SEQ ID Nos:28 and 29 for PCR amplification of β-globin 17.5 kb DNA. 200 ng of genomic DNA derived from human cell line K562 was used as a template. […]

KOD-plus DNA polymerase [2] = biological target: T1, KOD-plus DNA polymerase; settings: salt at 6 mM of ion equivalent, FIG. 9
[3] = 2 mM potassium oxalate, target of more than 20 kb, FIG. 15

T1 sequence (P77933 other isoform, or with tags, fused parts or gaps DEL407-766/DEL853-1389): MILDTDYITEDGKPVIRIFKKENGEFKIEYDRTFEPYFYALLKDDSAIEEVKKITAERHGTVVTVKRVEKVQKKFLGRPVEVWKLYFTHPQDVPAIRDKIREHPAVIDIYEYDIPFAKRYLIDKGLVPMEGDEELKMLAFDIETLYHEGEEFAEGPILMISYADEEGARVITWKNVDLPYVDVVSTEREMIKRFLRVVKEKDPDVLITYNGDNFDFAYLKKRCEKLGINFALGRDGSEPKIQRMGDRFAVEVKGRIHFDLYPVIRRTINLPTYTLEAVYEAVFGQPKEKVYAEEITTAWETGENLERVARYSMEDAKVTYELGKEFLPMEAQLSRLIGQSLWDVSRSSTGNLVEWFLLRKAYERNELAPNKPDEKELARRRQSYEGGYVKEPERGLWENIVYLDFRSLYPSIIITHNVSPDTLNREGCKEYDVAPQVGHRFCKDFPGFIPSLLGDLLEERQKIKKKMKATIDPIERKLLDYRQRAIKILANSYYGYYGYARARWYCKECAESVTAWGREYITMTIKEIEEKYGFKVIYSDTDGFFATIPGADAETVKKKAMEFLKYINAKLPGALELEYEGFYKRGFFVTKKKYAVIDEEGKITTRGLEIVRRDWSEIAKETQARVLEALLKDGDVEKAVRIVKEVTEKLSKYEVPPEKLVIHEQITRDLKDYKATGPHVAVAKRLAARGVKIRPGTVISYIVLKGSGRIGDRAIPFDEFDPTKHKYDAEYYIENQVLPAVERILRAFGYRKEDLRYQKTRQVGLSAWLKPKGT
Sequence of KOD DNA polymerase (P77933 other isoform, or with tags, fused parts or gaps DEL407-766/DEL853-1389): as above

C[N+](C)(C)CC(=O)[O-] [betaine, trimethylglycine]
betaine concentration at which the amount of amplification was greatest (KOD-plus DNA polymerase [1]): 1.5 M | betaine concentration giving an increased amount of amplification of the target DNA (KOD-plus DNA polymerase [1]): 0.5 to 1.5 M | betaine concentration at which sufficient amplification of both target DNAs was observed (KOD DNA polymerase; 2 mM potassium oxalate, tPA 9 kb and 12 kb, FIG. 18): 1 M and 1.5 M | betaine concentration at which amplification of the target DNA was not observed (KOD DNA polymerase; [3]): ≤ 1.2 M | betaine concentration at which sufficient amplification was found (KOD DNA polymerase; [3]): 1.4 M and 1.6 M

O=C([O-])C(=O)[O-].[K+].[K+] [potassium oxalate]
amplification of target DNA (electrophoresis pattern) (KOD-plus DNA polymerase [2]): Amplification was observed | potassium oxalate concentration at which amplification was confirmed (KOD DNA polymerase; 1.5 M betaine, tPA 22 kb DNA, FIG. 16): 2 mM | potassium oxalate concentration at which slight amplification was observed (KOD DNA polymerase; 1.5 M betaine, tPA 24 kb DNA, FIG. 16): 1.5 mM and 2.0 mM
